Experimental data taken from patent publication US20210369720A1, “SYNERGISTIC COMPOSITION HAVING NEUROPROTECTIVE PROPERTIES AND METHODS OF USE THEREOF” (Rutgers, The State University of New Jersey, priority 2018, published 2021).

Key:
Syn^Tg mice [1] = experiment: Rotarod, Syn^Tg mice; assay type: in vivo; conditions: EHT 12 mg/kg/day in chow and/or caffeine 50 mg/kg/day in drinking water from weaning until six months of age, vs untreated Syn^Tg mice
From the text: (§1) Thy1-α-synuclein transgenic mice (Syn^Tg) on BDF1 background overexpressing human wild-type α-synuclein under the control of the Thy1 promoter were maintained by mating heterozygous transgenic females with WT BDF1 males (Rockenstein E, et al. (2002) Differential neuropathological alterations in transgenic mice expressing alpha-synuclein from the platelet-derived growth factor and Thy-1 promoters. J Neurosci Res 68(5):568-578). BDF1 mice (mixed C57BL/6-DBA/2) were generated every three months by mating female C57BL/6 (The Jackson Laboratory) and male DBA/2 mice (Charles River). Experiments were performed with male transgenic mice and their WT littermates. […] Wild-type littermates received regular water and control chow. […] At two months of age, mice were inoculated with α-Syn PFF unilaterally in the striatum. These treatments continued throughout the experiment until animals were sacrificed. Mice were weighed and their food and water intake was quantified weekly. Animals were housed 2-5/cage in an AAALAC approved facility in a temperature- and humidity-controlled environment under a 12-hour light/dark cycle and were maintained on a diet of lab chow and water ad libitum. […]

Syn^Tg mice [2] = experiment: Wire Hang test, Syn^Tg mice; assay type: in vivo; conditions: EHT 12 mg/kg/day in chow and/or caffeine 50 mg/kg/day in drinking water from weaning until six months of age, vs untreated Syn^Tg mice
From the text: as §1

Syn^Tg mice [3] = experiment: Nesting behavior, Syn^Tg mice; assay type: in vivo; conditions: EHT 12 mg/kg/day in chow and/or caffeine 50 mg/kg/day in drinking water from weaning until six months of age, vs untreated Syn^Tg mice
From the text: as §1

Syn^Tg mice [4] = experiment: Morris Water Maze, Syn^Tg mice; assay type: in vivo; conditions: EHT 12 mg/kg/day in chow and/or caffeine 50 mg/kg/day in drinking water from weaning until six months of age, vs untreated Syn^Tg mice
From the text: as §1

[5] = system: phosphorylated α-synuclein (p-α-Syn); experiment: Western blot of p-α-Syn in cortical tissue lysates, Syn^Tg mice; assay type: in vivo; conditions: EHT 12 mg/kg/day and/or caffeine 50 mg/kg/day until six months of age, vs untreated Syn^Tg mice
From the text: as §1, with “weekly.” for “weekly. Animals were housed 2-5/cage in an AAALAC approved facility in a temperature- and humidity-controlled environment under a 12-hour light/dark cycle and were maintained on a diet of lab chow and water ad libitum.”
(§2) Human neuroblastoma SH-SY5Y cells were cultured in DMEM-F12 with 10% FBS. […] Protein concentration was determined by bicinchonic acid (BCA) method (Pierce), equal amount of protein was separated on 5-20% SDS-PAGE gel (Genescript) and transferred to nitrocellulose or PVDF membrane (Biorad). […]

MAP2 = experiment: Immunofluorescence staining of MAP2 in the cortex, Syn^Tg mice; assay type: in vivo; conditions: EHT 12 mg/kg/day and/or caffeine 50 mg/kg/day until six months of age
From the text: as §1

PP2A [6] = experiment: Western blot of PP2A methylation, striatal tissue lysates of Syn^Tg mice; assay type: in vivo; conditions: normalized to total PP2A, EHT 12 mg/kg/day and/or caffeine 50 mg/kg/day
From the text: (§3) Thy1-α-synuclein transgenic mice (Syn^Tg) on BDF1 background overexpressing human wild-type α-synuclein under the control of the Thy1 promoter were maintained by mating heterozygous transgenic females with WT BDF1 males (Rockenstein E, et al. (2002) Differential neuropathological alterations in transgenic mice expressing alpha-synuclein from the platelet-derived growth factor and Thy-1 promoters. J Neurosci Res 68(5):568-578). BDF1 mice (mixed C57BL/6-DBA/2) were generated every three months by mating female C57BL/6 (The Jackson Laboratory) and male DBA/2 mice (Charles River). Experiments were performed with male transgenic mice and their WT littermates. […] Wild-type littermates received regular water and control chow. […] At two months of age, mice were inoculated with α-Syn PFF unilaterally in the striatum. These treatments continued throughout the experiment until animals were sacrificed. Mice were weighed and their food and water intake was quantified weekly. Animals were housed 2-5/cage in an AAALAC approved facility in a temperature- and humidity-controlled environment under a 12-hour light/dark cycle and were maintained on a diet of lab chow and water ad libitum. All animal procedures were approved by the Rutgers-Robert Wood Johnson Medical School Institutional Animal Care and Use Committee and were performed according to the National Institutes of Health Guide for the Care and Use of Laboratory Animals.
(§4) Human neuroblastoma SH-SY5Y cells were cultured in DMEM-F12 with 10% FBS. At 50% confluency, cells were treated with 1 gg/ml mouse α-Syn PFF in DMEM-F12 with 1% FBS for 7 days. Medium was refreshed every 3 days. Cell harvesting was done with 2% SDS in PBS supplemented with protease inhibitor (Millipore) and phosphatase inhibitor (Sigma-Aldrich). Lysates were sonicated and boiled at 95° C. for 5 minutes. Protein concentration was determined by bicinchonic acid (BCA) method (Pierce), equal amount of protein was separated on 5-20% SDS-PAGE gel (Genescript) and transferred to nitrocellulose or PVDF membrane (Biorad). Following transfer, membranes were blocked for 1 hour at room temperature in blocking buffer (Li-Cor) or 5% (w/v) BSA/TBS-Tween 0.1% (v/v). Primary antibodies were diluted in blocking buffer or 5% (w/v) BSA/TBS-Tween 0.1% (v/v) and incubated with the membranes at 4° C. overnight. Membranes were washed three times in TBS-Tween and incubated in diluted IRDye 800CW or HRP conjugated secondary antibody for 1 hour at room temperature. Following washing, membranes were scanned by Li-Cor Odyssey CLx infrared imaging system or treated with the Western Lightning ECL-plus reagents (PerkinElmer) and exposed to autoradiography films (LabScientific).

[7] = system: α-Syn PFF inoculated WT mice; experiment: Rotarod, α-Syn PFF inoculated WT mice; assay type: in vivo; conditions: EHT 12 mg/kg/day in diet and/or caffeine 50 mg/kg/day in drinking water from weaning, 6 months post-inoculation
From the text: as §1

[8] = system: α-Syn PFF inoculated WT mice; experiment: Wire Hang test, α-Syn PFF inoculated WT mice; assay type: in vivo; conditions: EHT 12 mg/kg/day in diet and/or caffeine 50 mg/kg/day in drinking water from weaning, 6 months post-inoculation
From the text: as §1

[9] = system: α-Syn PFF inoculated WT mice; experiment: Nesting behavior, α-Syn PFF inoculated WT mice; assay type: in vivo; conditions: EHT 12 mg/kg/day in diet and/or caffeine 50 mg/kg/day in drinking water from weaning, 6 months post-inoculation
From the text: as §1

[10] = system: α-Syn PFF inoculated WT mice; experiment: Morris Water Maze, α-Syn PFF inoculated WT mice; assay type: in vivo; conditions: EHT 12 mg/kg/day and/or caffeine 50 mg/kg/day, 6 months post-inoculation, test also not affected by PFF inoculation
From the text: as §1

[11] = system: phosphorylated α-synuclein (p-α-Syn); experiment: Immunohistochemical staining of p-α-Syn, α-Syn PFF inoculated WT mice; assay type: in vivo; conditions: EHT 12 mg/kg/day and/or caffeine 50 mg/kg/day, vs untreated α-Syn PFF inoculated mice
From the text: as §3
α-Syn PFF solution was sonicated at 60% amplitude 30 times (0.5 sec on, 0.5 sec off). During the stereotactic surgery, two month old WT C57BL/6 mice were anesthetized by Ketamine/xylazine (90/4.5 mg/kg, i.p., Ketaset from Zoetis, and Anased from Akorn) and positioned in a digital stereotaxic apparatus (Stoelting, Wood Dale, Ill.). A midline sagittal incision was made in the scalp, and a hole was drilled in the skull over the right striatum according to the coordinates below. All injections were made using a Hamilton neuros syringe equipped with a 33 gauge needle and attached to a Quintessential Stereotaxic Injector (Stoelting, Wood Dale, Ill.). A total of 5∝g/2.5 ul of α-Syn PFF was infused in the dorsal striatum (+0.2 mm relative to Bregma, +2.0 mm from midline, +2.6 mm beneath the dura) at a delivery rate of 0.2∝l/min (61). The needle was kept in place for 5 min following the infusion to prevent reflux before withdrawing.
Immunohistochemical analyses were performed as described previously (Lee et al., 2011; 2012). Mice were perfused transcardially with PBS, and brains were removed and post-fixed in 10% formalin at 4° C. overnight. Fixed brains were then sectioned coronally in 30 am thickness using a cryostat and collected as sets of slices with the same interval. Free-floating sections were blocked by 1% BSA and 0.2% Triton X100 in PBS. Sections were then incubated with primary antibody overnight at 4° C. and biotinylated secondary antibody for 1 hour at room temperature.
Vectastain elite ABC kit (Vector Laboratories, Burlingame, Calif.) and 3,3′-diaminobenzidine (Sigma-Aldrich) were used for amplifying and color development. Images were captured by Nikon Eclipse 55i. Staining intensity and phosphorylated α-synuclein (p-α-Syn) aggregate counts were obtained by Image Pro Plus. Intensity calibration was set to the level of a blank area in each image. HSI (hue, saturation and intensity) was used for the color selection with the standard parameters of H: 0-30, S: 0-255 and I: 0-160. […]

[12] = system: Tyrosine hydroxylase (TH); experiment: Striatal TH staining, α-Syn PFF inoculated WT mice; assay type: in vivo; conditions: EHT 12 mg/kg/day and/or caffeine 50 mg/kg/day, vs untreated α-Syn PFF inoculated mice
From the text: as §1

dopamine = experiment: Striatal dopamine content by HPLC-MS, α-Syn PFF inoculated WT mice; assay type: in vivo; conditions: each compound alone, EHT 12 mg/kg/day or caffeine 50 mg/kg/day, vs untreated α-Syn PFF inoculated mice
From the text: as §1

[13] = system: TH positive dopaminergic neurons of the substantia nigra; experiment: Nigral TH positive neuron count, α-Syn PFF inoculated WT mice; assay type: in vivo; conditions: each compound individually, PFF alone reduced neurons by 51% vs PBS
From the text: as §1

PP2A [14] = experiment: Western blot of PP2A methylation, ipsilateral striatal tissue lysates of α-Syn PFF inoculated mice; assay type: in vivo; conditions: EHT 12 mg/kg/day and/or caffeine 50 mg/kg/day, vs untreated α-Syn PFF inoculated mice
From the text: as §3
α-Syn PFF solution was sonicated at 60% amplitude 30 times (0.5 sec on, 0.5 sec off). During the stereotactic surgery, two month old WT C57BL/6 mice were anesthetized by Ketamine/xylazine (90/4.5 mg/kg, i.p., Ketaset from Zoetis, and Anased from Akorn) and positioned in a digital stereotaxic apparatus (Stoelting, Wood Dale, Ill.). […]
as §2

PP2A [15] = experiment: Western blot of PP2A methylation in SH-SY5Y cells challenged with α-Syn PFF; assay type: cell-based, Human; conditions: SH-SY5Y cells challenged with mouse α-Syn PFF for 7 days; caffeine and/or EHT added to the medium
Protocol: as §4

p-α-Syn = experiment: Western blot of p-α-Syn in SH-SY5Y cells challenged with α-Syn PFF; assay type: cell-based, Human; conditions: SH-SY5Y cells challenged with mouse α-Syn PFF for 7 days; caffeine and/or EHT added to the medium
Protocol: as §4

SH-SY5Y cells = experiment: Cytotoxicity of α-Syn PFF by propidium iodide (PI) exclusion in SH-SY5Y cells; assay type: cell-based, Human; conditions: SH-SY5Y cells challenged with mouse α-Syn PFF for seven days; vs untreated α-Syn PFF-challenged cells (2.5 fold increase of PI positive cells)
[16] = system: A53T mutant α-synuclein fibril injections in the striatum; conditions: mice, chronic caffeine treatment; cited from earlier work

Compound: Cn1c(=O)c2c(ncn2C)n(C)c1=O [Caffeine, 1,3,7-trimethylxanthine, reference compound]
- performance on the rotarod (Syn^Tg mice [1]): did not show any improvement
- performance on the wire hang test (Syn^Tg mice [2]): did not show any improvement
- nesting behavior (Syn^Tg mice [3]): did not show any improvement
- performance on the Morris Water Maze (Syn^Tg mice [4]): did not show any improvement
- p-α-Syn levels by Western blot, cortical tissue lysates [5]: no significant effect
- MAP2 in the cortex (neuritic integrity) (MAP2): did not improve this profile
- Demethylated PP2A (demethyl-PP2A) levels (PP2A [6]): not affected
- Methylated PP2A (Methyl-PP2A) levels (PP2A [6]): did not change
- performance on the rotarod [7]: did not affect performance
- performance on the wire hang test [8]: did not affect performance
- nesting behavior (nest building) [9]: did not affect performance
- Learning and memory task on the Morris Water Maze [10]: not affected
- p-α-Syn in the contralateral striatum [11]: partially but insignificantly reduced
- p-α-Syn in the ipsilateral striatum [11]: partially but insignificantly reduced
- TH staining of dopaminergic terminals in the striatum (ipsilateral and contralateral) [12]: no effect
- dopamine (DA) content in lysates of the ipsilateral striatum, benefit in words (dopamine): did not have a significant benefit
- prevention of the reduction of TH positive dopaminergic neurons of the substantia nigra [13]: did not prevent this reduction
- methyl-PP2A levels (PP2A [14]): insignificant increase
- demethylated PP2A levels (PP2A [15]): partially reversed this trend
- methylated PP2A levels (PP2A [15]): partially reversed this trend
- p-α-Syn levels (p-α-Syn): no effect
- cytotoxicity of α-Syn PFF, number of PI positive cells (cell viability) (SH-SY5Y cells): modestly protected
- protection against A53T mutant α-synuclein fibril injections in the striatum [16]: protect
